Laboratory results reported in patent US9944607B2, “Thiohydantoin derivatives and uses thereof” (Whitehead Institute for Biomedical Research, priority 2012, dated 2018).
In brackets after ≈: the same amount, converted by molar mass. Where two headings read alike, the source gives them in different places. Each block holds one compound with its values, some of them ahead of it.

Assays:
Candida albicans CaCi-17 = experiment: Primary assay: C. albicans CaCi-17 growth inhibition (Alamar Blue); assay type: cell-based; conditions: n = 3, 48 hours, tested up to 26 μM
Candida albicans CaCi-2 = experiment: Primary assay: C. albicans CaCi-2 growth inhibition (Alamar Blue); assay type: cell-based; conditions: n = 3, 48 hours, tested up to 26 μM; for IC50: read-out: Growth Inhibition Activity, IC50 (μM), C. albicans (n = 3) CaCi-2
[1] = test system: NIH-3T3 mammalian fibroblasts; experiment: Counterscreen mammalian cell toxicity assay (Alamar Blue); assay type: cell-based, murine; conditions: n = 1, 48 hours, tested up to 26 μM
Description: Quiescent murine fibroblasts were subjected to incubation with compounds of interest for 48 hours. Subsequent cell viability was determined via measuring Alamar Blue fluorescence.
Procedures • After overnight culture, pin compounds into wells at 100 nL/well using the CyBio CyBi-Well pinning instrument. • Return the plates to the tissue culture incubator and incubate the culture for an additional 48 hours at 37° C. under 5% CO2. • At the completion of this incubation, add Alamar Blue solution diluted 1:40 in PBS to each well (10 μL/well) to achieve a final dilution of 1:200. • Incubate the plates for an additional 2-3 hours at 37° C. under 5% CO2. • Read the Relative Fluorescence Intensity (RFU) of wells on a standard plate reader as a measure of relative cell growth. […] 4.4.

[2] = Solubility in PBS pH 7.4 with 1% DMSO; conditions: for solubility at 24 h: phosphate buffered saline with 1% DMSO, pH 7.4, aqueous buffer, kinetic from dmso stock
Description: Solubility was determined in phosphate buffered saline (PBS) pH 7.4 with 1% DMSO. Each compound was prepared in duplicate at 100 μM in both 100% DMSO and PBS with 1% DMSO. Compounds were allowed to equilibrate at room temperature with a 250 rpm orbital shake for 24 hours. After equilibration, samples were analyzed by UPLC-MS (Waters, Milford, Mass.) with compounds detected by SIR detection on a single quadrupole mass spectrometer. The DMSO samples were used to create a two-point calibration curve to which the response in PBS was fit.

[3] = Table 4, PBS pH 7.4 with 1% DMSO, 24 hours, room temperature

Growth Inhibition Activity, IC50 (μM), C. albicans (n = 3) CaCi-17 (Candida albicans CaCi-17; Table 7): inactive | Growth Inhibition Activity, IC50 (μM), C. albicans (n = 3) CaCi-2 (Candida albicans CaCi-2; Table 7): inactive | solubility at 24 h [2]: 72 µM (≈ 18.7 µg/mL)
Structure (SMILES): Cc1ccc(N2C(=S)NC(=O)C23CCCC3)cc1 [compound 56604876]
IC50 ([1]; Mus musculus, NIH3T3, read-out: Growth Inhibition Activity, IC50 (μM), 3T3 Fibroblasts (n = 1), Table 7): 32.6 µM

Growth Inhibition Activity, IC50 (μM), C. albicans (n = 3) CaCi-17 (Candida albicans CaCi-17; Table 6): inactive | Growth Inhibition Activity, IC50 (μM), C. albicans (n = 3) CaCi-2 (Candida albicans CaCi-2; Table 6): inactive | solubility at 24 h [2]: 64 µM (≈ 20.1 µg/mL)
Structure (SMILES): CCCCN1C(=O)N(c2ccc(C)cc2)C2(CCCCC2)C1=O [compound 56604877]
Growth Inhibition Activity, IC50 (μM), 3T3 Fibroblasts (n = 1) ([1]; Table 6): Inactive

Growth Inhibition Activity, IC50 (μM), C. albicans (n = 3) CaCi-17 (Candida albicans CaCi-17; Table 7): inactive | Growth Inhibition Activity, IC50 (μM), C. albicans (n = 3) CaCi-2 (Candida albicans CaCi-2; Table 7): inactive | solubility at 24 h [2]: 55 µM (≈ 12.9 µg/mL)
Structure (SMILES): Cc1ccc(N2C(=S)NC(=O)C2(C)C)cc1 [compound 56604879]
Growth Inhibition Activity, IC50 (μM), 3T3 Fibroblasts (n = 1) ([1]; Table 7): Inactive

Growth Inhibition Activity, IC50 (μM), C. albicans (n = 3) CaCi-17 (Candida albicans CaCi-17; Table 7): inactive | Growth Inhibition Activity, IC50 (μM), C. albicans (n = 3) CaCi-2 (Candida albicans CaCi-2; Table 7): inactive | solubility at 24 h [2]: 14 µM (≈ 3.62 µg/mL)
Structure (SMILES): Cc1ccc(N2C(=O)NC(=O)C23CCCCC3)cc1 [compound 56604883]
Growth Inhibition Activity, IC50 (μM), 3T3 Fibroblasts (n = 1) ([1]; Table 7): Inactive

Growth Inhibition Activity, IC50 (μM), C. albicans (n = 3) CaCi-17 (Candida albicans CaCi-17; Table 7): inactive | Growth Inhibition Activity, IC50 (μM), C. albicans (n = 3) CaCi-2 (Candida albicans CaCi-2; Table 7): inactive | solubility at 24 h [2]: 21 µM (≈ 4.63 µg/mL)
Structure (SMILES): Cc1ccc(N2C(=O)C(=O)NC2=S)cc1 [compound 56604884]
Growth Inhibition Activity, IC50 (μM), 3T3 Fibroblasts (n = 1) ([1]; Table 7): Inactive

Growth Inhibition Activity, IC50 (μM), C. albicans (n = 3) CaCi-17 (Candida albicans CaCi-17; Table 7): inactive | Growth Inhibition Activity, IC50 (μM), C. albicans (n = 3) CaCi-2 (Candida albicans CaCi-2; Table 7): inactive | solubility at 24 h [2]: > 100 µM
Structure (SMILES): Cc1ccc(N2C(=S)NC(=O)C23CCOCC3)cc1 [compound 56604885]
Growth Inhibition Activity, IC50 (μM), 3T3 Fibroblasts (n = 1) ([1]; Table 7): Inactive

Growth Inhibition Activity, IC50 (μM), C. albicans (n = 3) CaCi-17 (Candida albicans CaCi-17; Table 3): inactive | Growth Inhibition Activity, IC50 (μM), C. albicans (n = 3) CaCi-2 (Candida albicans CaCi-2; Table 3): inactive | PBS Solubility ([2]; pH 7.4): 29 µM
Structure (SMILES): Cc1ccc(N2C(=S)N(S(C)(=O)=O)C(=O)C23CCCCC3)cc1 [compound 56604886]
Growth Inhibition Activity, IC50 (μM), 3T3 Fibroblasts (n = 1) ([1]; Table 3): Inactive

Growth Inhibition Activity, IC50 (μM), C. albicans (n = 3) CaCi-17 (Candida albicans CaCi-17; Table 3): inactive | Growth Inhibition Activity, IC50 (μM), C. albicans (n = 3) CaCi-2 (Candida albicans CaCi-2; Table 3): inactive | PBS Solubility ([2]; pH 7.4): 7.8 µM
Structure (SMILES): Cc1ccc(N2C(=S)NC(=O)C23CCCCC3)cc1 [compound 56604892]
Growth Inhibition Activity, IC50 (μM), 3T3 Fibroblasts (n = 1) ([1]; Table 3): Inactive

Growth Inhibition Activity, IC50 (μM), C. albicans (n = 3) CaCi-17 (Candida albicans CaCi-17; Table 5): inactive | Growth Inhibition Activity, IC50 (μM), C. albicans (n = 3) CaCi-2 (Candida albicans CaCi-2; Table 5): Inactive | PBS Solubility ([2]; pH 7.4): 9.9 µM
Structure (SMILES): CCOC(=O)N1C(=O)C2(CCC2)N(c2ccc(C)cc2)C1=S [compound 56604894]
Growth Inhibition Activity, IC50 (μM), 3T3 Fibroblasts (n = 1) ([1]; Table 5): Inactive

Further lines, the compound ahead of its results:

Structure (SMILES): CCCCN1C(=O)N(c2ccc(C)cc2)C2(CCCCC2)C1=S [compound 56604857]
Growth Inhibition Activity, IC50 (μM), C. albicans (n = 3) CaCi-17 (Candida albicans CaCi-17; Table 6): inactive | Growth Inhibition Activity, IC50 (μM), C. albicans (n = 3) CaCi-2 (Candida albicans CaCi-2; Table 6): inactive | IC50 ([1]; Mus musculus, NIH3T3, read-out: Growth Inhibition Activity, IC50 (μM), 3T3 Fibroblasts (n = 1), Table 6): 20.9 µM | solubility at 24 h [2]: < 1 µM

Structure (SMILES): CCCc1ccc(N2C(=S)N(C(=O)OCC)C(=O)C23CCCCC3)cc1 [compound 56604858]
Growth Inhibition Activity, IC50 (μM), C. albicans (n = 3) CaCi-17 (Candida albicans CaCi-17; Table 4): inactive | IC50 (Candida albicans CaCi-2; Table 4): 6.9 µM | Growth Inhibition Activity, IC50 (μM), 3T3 Fibroblasts (n = 1) ([1]; Table 4): Inactive | PBS Solubility ([2]; pH 7.4): <1.0 µM

Structure (SMILES): Cc1ccc(N2C(=S)N(C(=O)OC(C)C)C(=O)C23CCCCC3)cc1 [compound 56604859]
Growth Inhibition Activity, IC50 (μM), C. albicans (n = 3) CaCi-17 (Candida albicans CaCi-17; Table 3): inactive | IC50 (Candida albicans CaCi-2; Table 3): 5.9 µM | Growth Inhibition Activity, IC50 (μM), 3T3 Fibroblasts (n = 1) ([1]; Table 3): Inactive | PBS Solubility ([2]; pH 7.4): <1.0 µM

Structure (SMILES): O=C1NC(=S)N(c2ccc(F)cc2)C12CCCCC2 [compound 56604862]
Growth Inhibition Activity, IC50 (μM), C. albicans (n = 3) CaCi-17 (Candida albicans CaCi-17; Table 7): inactive | Growth Inhibition Activity, IC50 (μM), C. albicans (n = 3) CaCi-2 (Candida albicans CaCi-2; Table 7): inactive | Growth Inhibition Activity, IC50 (μM), 3T3 Fibroblasts (n = 1) ([1]; Table 7): Inactive | solubility at 24 h [2]: 43 µM (≈ 12 µg/mL)

Structure (SMILES): CCOC(=O)N1C(=S)N(c2ccc(C)cc2)C2(CCCCC2)/C1=N/Cc1ccccc1 [compound 56604867]
Growth Inhibition Activity, IC50 (μM), C. albicans (n = 3) CaCi-17 (Candida albicans CaCi-17; Table 6): inactive | Growth Inhibition Activity, IC50 (μM), C. albicans (n = 3) CaCi-2 (Candida albicans CaCi-2; Table 6): inactive | Growth Inhibition Activity, IC50 (μM), 3T3 Fibroblasts (n = 1) ([1]; Table 6): Inactive | solubility at 24 h [2]: 26 µM (≈ 11.3 µg/mL)

Structure (SMILES): CCCC(=O)N1C(=O)C2(CCCCC2)N(c2ccc(C)cc2)C1=S [compound 56604869]
Growth Inhibition Activity, IC50 (μM), C. albicans (n = 3) CaCi-17 (Candida albicans CaCi-17; Table 3): inactive | Growth Inhibition Activity, IC50 (μM), C. albicans (n = 3) CaCi-2 (Candida albicans CaCi-2; Table 3): inactive | IC50 ([1]; read-out: Growth Inhibition Activity, IC50 (μM), 3T3 Fibroblasts (n = 1), Table 3): 18.8 µM | PBS Solubility ([2]; pH 7.4): 2.2 µM

Structure (SMILES): Cc1ccc(N2C(=S)N(C(=O)Oc3ccccc3)C(=O)C23CCCCC3)cc1 [compound 56604875]
Growth Inhibition Activity, IC50 (μM), C. albicans (n = 3) CaCi-17 (Candida albicans CaCi-17; Table 3): inactive | Growth Inhibition Activity, IC50 (μM), C. albicans (n = 3) CaCi-2 (Candida albicans CaCi-2; Table 3): inactive | Growth Inhibition Activity, IC50 (μM), 3T3 Fibroblasts (n = 1) ([1]; Table 3): Inactive | PBS Solubility ([2]; Table 3, PBS pH 7.4 with 1% DMSO, 24 hours, room temperature): <1.0 µM

Structure (SMILES): CCOC(=O)N1C(=O)C2(CCCCC2)N(Cc2ccccc2)C1=S [compound 56604878]
IC50 (Candida albicans CaCi-17; Table 4, read-out: Growth Inhibition Activity, IC50 (μM), C. albicans (n = 3) CaCi-17): 22.8 µM | IC50 (Candida albicans CaCi-2; Table 4): 3.8 µM | Growth Inhibition Activity, IC50 (μM), 3T3 Fibroblasts (n = 1) ([1]; Table 4): Inactive | PBS Solubility [2, 3]: 7.2 µM

Structure (SMILES): CCOC(=O)N1C(=O)C2(CCCCC2)N(c2ccc(-c3ccccc3)cc2)C1=S [compound 56604882]
Growth Inhibition Activity, IC50 (μM), C. albicans (n = 3) CaCi-17 (Candida albicans CaCi-17; Table 4): inactive | Growth Inhibition Activity, IC50 (μM), C. albicans (n = 3) CaCi-2 (Candida albicans CaCi-2; Table 4): inactive | IC50 ([1]; read-out: Growth Inhibition Activity, IC50 (μM), 3T3 Fibroblasts (n = 1), Table 4): 9.8 µM | PBS Solubility [2, 3]: <1.0 µM

Structure (SMILES): CCOC(=O)N1C(=O)C2(CCCCC2)N(C(C)C)C1=S [compound 56604896]
Growth Inhibition Activity, IC50 (μM), C. albicans (n = 3) CaCi-17 (Candida albicans CaCi-17; Table 4): inactive | Growth Inhibition Activity, IC50 (μM), C. albicans (n = 3) CaCi-2 (Candida albicans CaCi-2; Table 4): inactive | Growth Inhibition Activity, IC50 (μM), 3T3 Fibroblasts (n = 1) ([1]; Table 4): Inactive | PBS Solubility [2, 3]: 12 µM
